Measured values as given in patent US8906909B2 (Curis, Inc., priority 2009, dated 2014).

Tests used:
[1] = system: HDACs (HeLa cell nuclear extracts); test: HDAC enzymatic activity, Biomol Color de Lys system; format: biochemical
Summary of the method: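 HeLa nuclear extract as HDAC source with Color de Lys substrate in 50 mM Tris/Cl pH 8.0, 137 mM NaCl, 2.7 mM KCl, 1 mM MgCl2. Serially diluted compounds reacted 1 h at 25 °C, then developer added; fluorescence (Ex 350–380/Em 440–460) fitted sigmoidally for IC50.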

| SMILES | melting point [°C] | IC50 [1] [nM] |
| --- | --- | --- |
| COCc1cccc(-c2nc(N3CCOCC3)c3sc(CN(C)c4ncc(C(=O)NO)cn4)cc3n2)c1 [Compound 139, N-hydroxy-2-(((2-(3-(methoxymethyl)phenyl)-4-morpholinothieno[3,2-d]pyrimidin-6-yl)methyl)(methyl)amino)pyrimidine-5-carboxamide] | 178 to 181 | < 100 |
| O=C(CCCCCCNCc1cc2nc(-c3cccc4[nH]ncc34)nc(N3CCOCC3)c2s1)NO [Compound 44, 7-((2-(1H-indazol-4-yl)-4-morpholinothieno[3,2-d]pyrimidin-6-yl)methylamino)-N-hydroxyheptanamide] | 188 to 190 | 100 to 1000 |
| CS(=O)(=O)N1CCN(Cc2cc3nc(-c4cccc5c4cnn5CCCCCCC(=O)NO)nc(N4CCOCC4)c3s2)CC1 [Compound 5, N-hydroxy-7-(4-(6-((4-(methylsulfonyl)piperazin-1-yl)methyl)-4-morpholinothieno[3,2-d]pyrimidin-2-yl)-1H-indazol-1-yl)heptanamide] | 127 to 130 | < 100 |
| CCNc1ccc(-c2nc(N3CCOCC3)c3sc(CN(C)c4ncc(C(=O)NO)cn4)cc3n2)cc1 [Compound 153, 2-(((2-(4-(ethylamino)phenyl)-4-morpholinothieno[3,2-d]pyrimidin-6-yl)methyl)(methyl)amino)-N-hydroxypyrimidine-5-carboxamide] | 185 to 187 | < 100 |
| CN(Cc1cc2nc(-c3ccc4c(c3)NCCO4)nc(N3CCOCC3)c2s1)c1ncc(C(=O)NO)cn1 [Compound 182, 2-(((2-(3,4-dihydro-2H-benzo[b][1,4]oxazin-6-yl)-4-morpholinothieno[3,2-d]pyrimidin-6-yl)methyl)(methyl)amino)-N-hydroxypyrimidine-5-carboxamide] | 170 to 183 | < 100 |
| CS(=O)(=O)N1CCN(Cc2cc3nc(-c4cccc5nn(CCCCCC(=O)NO)cc45)nc(N4CCOCC4)c3s2)CC1 [Compound 8, N-hydroxy-6-(4-(6-((4-(methylsulfonyl)piperazin-1-yl)methyl)-4-morpholinothieno[3,2-d]pyrimidin-2-yl)-2H-indazol-2-yl)hexanamide] | 124 to 125 | < 100 |
| CN(Cc1cc2nc(-c3cccc4[nH]ncc34)nc(Nc3ccccc3)c2s1)c1ncc(C(=O)NO)cn1 [Compound 164, 2-(((2-(1H-indazol-4-yl)-4-(phenylamino)thieno[3,2-d]pyrimidin-6-yl)methyl)(methyl)amino)-N-hydroxypyrimidine-5-carboxamide] | 232 to 235 | < 100 |
| CN(Cc1cc2nc(-c3ccc(C(N)=O)cc3)nc(N3CCOCC3)c2s1)c1ncc(C(=O)NO)cn1 [Compound 143, 2-(((2-(4-carbamoylphenyl)-4-morpholinothieno[3,2-d]pyrimidin-6-yl)methyl)(methyl)amino)-N-hydroxypyrimidine-5-carboxamide] | 200 to 202 | < 100 |
| CN(CCCCCCC(=O)NO)Cc1cc2nc(-c3cccc4[nH]ncc34)nc(N3CCOCC3)c2s1 [Compound 104, 7-(((2-(1H-indazol-4-yl)-4-morpholinothieno[3,2-d]pyrimidin-6-yl)methyl)(methyl)amino)-N-hydroxyheptanamide] | 131 to 133 | 100 to 1000 |
| O=C(NO)c1cnc(N2CCC(CNCc3cc4nc(-c5cccc6[nH]ncc56)nc(N5CCOCC5)c4s3)CC2)nc1 [Compound 15, 2-(4-(((2-(1H-indazol-4-yl)-4-morpholinothieno[3,2-d]pyrimidin-6-yl)methylamino)methyl)piperidin-1-yl)-N-hydroxypyrimidine-5-carboxamide] | 170 to 172 | < 100 |
| CN(Cc1cc2nc(-c3cn[nH]c3)nc(N3CCOCC3)c2s1)c1ncc(C(=O)NO)cn1 [Compound 196, N-hydroxy-2-(methyl((4-morpholino-2-(1H-pyrazol-4-yl)thieno[3,2-d]pyrimidin-6-yl)methyl)amino)pyrimidine-5-carboxamide] | 214 to 217 | < 100 |
| CS(=O)(=O)N1CCN(Cc2cc3nc(-c4cccc5[nH]ncc45)nc(N4CCN(CCCCCC(=O)NO)CC4)c3s2)CC1 [Compound 31, 6-(4-(2-(1H-indazol-4-yl)-6-((4-(methylsulfonyl)piperazin-1-yl)methyl)thieno[3,2-d]pyrimidin-4-yl)piperazin-1-yl)-N-hydroxyhexanamide] | 140 to 145 | 100 to 1000 |
| CN(Cc1cc2nc(-c3ccc(CN)cc3)nc(N3CCOCC3)c2s1)c1ncc(C(=O)NO)cn1 [Compound 135, 2-(((2-(4-(aminomethyl)phenyl)-4-morpholinothieno[3,2-d]pyrimidin-6-yl)methyl)(methyl)amino)-N-hydroxypyrimidine-5-carboxamide] | 184 to 186 | < 100 |
| CS(=O)(=O)N1CCN(Cc2cc3nc(-c4cccc5[nH]ncc45)nc(N4CCN(CCCCC(=O)NO)CC4)c3s2)CC1 [Compound 30, 5-(4-(2-(1H-indazol-4-yl)-6-((4-(methylsulfonyl)piperazin-1-yl)methyl)thieno[3,2-d]pyrimidin-4-yl)piperazin-1-yl)-N-hydroxypentanamide] | 142 to 145 | 100 to 1000 |
| CN(Cc1cc2nc(-c3cccc4[nH]ncc34)nc(N3CCOCC3)c2s1)c1ccc(/C=C/C(=O)NO)cc1 [Compound 81, (E)-3-(4-(((2-(1H-indazol-4-yl)-4-morpholinothieno[3,2-d]pyrimidin-6-yl)methyl)(methyl)amino)phenyl)-N-hydroxyacrylamide] | 188 to 190 | 1000 to 10000 |
| CN(Cc1cc2nc(-c3cc[nH]c3)nc(N3CCOCC3)c2s1)c1ncc(C(=O)NO)cn1 [Compound 197, N-hydroxy-2-(methyl((4-morpholino-2-(1H-pyrrol-3-yl)thieno[3,2-d]pyrimidin-6-yl)methyl)amino)pyrimidine-5-carboxamide] | 175 to 189 | < 100 |
| CN(Cc1cc2nc(-c3ccc4[nH]c(=O)[nH]c4c3)nc(N3CCOCC3)c2s1)c1ncc(C(=O)NO)cn1 [Compound 186, N-hydroxy-2-(methyl((4-morpholino-2-(2-oxo-2,3-dihydro-1H-benzo[d]imidazol-5-yl)thieno[3,2-d]pyrimidin-6-yl)methyl)amino)pyrimidine-5-carboxamide] | 272 to 275 | < 100 |

Results, then the compound that gave them:

| melting point [°C] | IC50 [1] [nM] | SMILES |
| --- | --- | --- |
| 248 to 252 | < 100 | Cc1ncc(-c2nc(N3CCOCC3)c3sc(NCCCCC(=O)NO)cc3n2)cn1 [Compound 229, N-Hydroxy-5-(2-(2-methylpyrimidin-5-yl)-4-morpholinothieno[3,2-d]pyrimidin-6-ylamino)pentanamide] |
| 190 to 193 | < 100 | CN(Cc1cc2nc(-c3cc(F)c(N)c(F)c3)nc(N3CCOCC3)c2s1)c1ncc(C(=O)NO)cn1 [Compound 282, 2-(((2-(4-Amino-3,5-difluorophenyl)-4-morpholinothieno[3,2-d]pyrimidin-6-yl)methyl)(methyl)amino)-N-hydroxypyrimidine-5-carboxamide] |
| 214 to 218 | < 100 | CN(Cc1cc2nc(-c3ccc(N)c(O)c3)nc(N3CCOCC3)c2s1)c1ncc(C(=O)NO)cn1 [Compound 279, 2-(((2-(4-Amino-3-hydroxyphenyl)-4-morpholinothieno[3,2-d]pyrimidin-6-yl)methyl)(methyl)amino)-N-hydroxypyrimidine-5-carboxamide] |
| 202 to 206 | < 100 | CN(Cc1cc2nc(-c3ccc(N)c([N+](=O)[O-])c3)nc(N3CCOCC3)c2s1)c1ncc(C(=O)NO)cn1 [Compound 278, 2-(((2-(4-Amino-3-nitrophenyl)-4-morpholinothieno[3,2-d]pyrimidin-6-yl)methyl)(methyl)amino)-N-hydroxypyrimidine-5-carboxamide] |
| 230 to 235 | < 100 | CC(O)c1ccc(F)c(-c2nc(N3CCOCC3)c3sc(CN(C)c4ncc(C(=O)NO)cn4)cc3n2)c1 (stereo not drawn) [Compound 295, 2-(((2-(2-Fluoro-5-(1-hydroxyethyl)phenyl)-4-morpholinothieno[3,2-d]pyrimidin-6-yl)methyl)(methyl)amino)-N-hydroxypyrimidine-5-carboxamide] |
| 175 to 180 | < 100 | Nc1ncc(-c2nc(N3CCOCC3)c3sc(NCCCCC(=O)NO)cc3n2)cn1 [Compound 226] |
| 125 to 130 | < 100 | COc1ccc(-c2nc(N3CCOCC3)c3sc(NCCCCCC(=O)NO)cc3n2)cn1 [Compound 233, 6-[2-(6-Methoxy-pyridin-3-yl)-4-morpholin-4-yl-thieno[3,2-d]pyrimidin-6-ylamino]-hexanoic acid hydroxyamide] |
| 168 to 170 | < 100 | CN(Cc1cc2nc(-c3ccc(F)cc3)nc(N3CCOCC3)c2s1)c1ncc(C(=O)NO)cn1 [Compound 200, 2-(((2-(4-fluorophenyl)-4-morpholinothieno[3,2-d]pyrimidin-6-yl)methyl)(methyl)amino)-N-hydroxypyrimidine-5-carboxamide] |
| 220 to 230 | 1000 to 10000 | Nc1ncc(-c2nc(N3CCOCC3)c3sc(NCCCC(=O)NO)cc3n2)cn1 [Compound 225, 4-(2-(2-aminopyrimidin-5-yl)-4-morpholinothieno[3,2-d]pyrimidin-6-ylamino)-N-hydroxybutanamide] |
| 162 to 165 | < 100 | CCOc1ccc(-c2nc(N3CCOCC3)c3sc(CN(C)c4ncc(C(=O)NO)cn4)cc3n2)cn1 [Compound 255, 2-(((2-(6-ethoxypyridin-3-yl)-4-morpholinothieno[3,2-d]pyrimidin-6-yl)methyl)(methyl)amino)-N-hydroxypyrimidine-5-carboxamide] |
